Reference: PubChem BioAssay AID248 (DTP/NCI, 2004)
Values joined by “and” are separate entries in the source; they are usually repeats but may differ in a detail not shown here. Equal entries are not always repeated. Toxic doses and inconclusive results are not listed. No stated cut-off is given here; in the data, active means T/C of 150% or more; inactive means T/C below 125%. Peptide text beside a SMILES is read from it. * marks the point of attachment. Cbz = O=C(OCc1ccccc1)*

Test system: L1210 leukemia ip in BDF1 mice, survival T/C
Assay: NCI In Vivo Anticancer Drug Screen. Data for tumor model L1210 Leukemia (intraperitoneal) in B6D2F1 (BDF1) mice
Settings: endpoint: mean survival time, higher = longer survival
How it was run: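 Antitumor effect is assessed in tumor-bearing animals. Survival in the compound arm is compared with a vehicle-dosed control arm and expressed as their quotient.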

[1] = dose: 50.0 mg/kg/injection, schedule: Q01DX001 (ip), vehicle: saline
[2] = dose: 100.0 mg/kg/injection, schedule: Q01DX001 (ip), vehicle: saline
[3] = dose: 200.0 mg/kg/injection, schedule: Q01DX001 (ip), vehicle: saline
[4] = dose: 400.0 mg/kg/injection, schedule: Q01DX001 (ip), vehicle: saline
[5] = dose: 100.0 mg/kg/injection, schedule: Q01DX009 (ip), vehicle: Klucel (hydroxypropylcellulose) (HPC)
[6] = dose: 200.0 mg/kg/injection, schedule: Q01DX009 (ip), vehicle: Klucel (hydroxypropylcellulose) (HPC)
[7] = dose: 100.0 mg/kg/injection, schedule: Q01DX001 (ip), vehicle: saline with Tween-80
[8] = dose: 100.0 mg/kg/injection, schedule: Q04DX003 (ip), vehicle: Klucel (hydroxypropylcellulose) (HPC)
[9] = dose: 100.0 mg/kg/injection, schedule: Q04DX003 (ip), vehicle: saline with Tween-80
[10] = dose: 200.0 mg/kg/injection, schedule: Q04DX003 (ip), vehicle: saline with Tween-80

Measured: T/C

CC1C[N+](C)=C2CCCCC2=C1N (configuration not stated)
inactive: dose: 6.25 mg/kg/injection, schedule: Q01DX009 (ip), vehicle: saline 105 % of control | dose: 6.25 mg/kg/injection, schedule: Q04DX003 (ip), vehicle: saline 96 % of control | dose: 12.5 mg/kg/injection, schedule: Q01DX009 (ip), vehicle: saline 98 % of control | dose: 12.5 mg/kg/injection, schedule: Q04DX003 (ip), vehicle: saline 98 % of control | dose: 25.0 mg/kg/injection, schedule: Q01DX009 (ip), vehicle: saline 102 % of control | dose: 25.0 mg/kg/injection, schedule: Q04DX003 (ip), vehicle: saline 108 % of control

CC(=O)C(C(C)=O)C(C)(C)C
inactive: [1] 95 % of control | [2] 97 % of control | [3] 90 % of control | [4] 95 % of control

CCCCCCCCCCCCCCCCCC(=O)N/N=C/c1cc(OC)ccc1OC
inactive: [5] 89 % of control | [6] 86 % of control | dose: 400.0 mg/kg/injection, schedule: Q01DX009 (ip), vehicle: Klucel (hydroxypropylcellulose) (HPC) 96 % of control

CCCCCC(C)N (configuration not stated)
inactive: dose: 5.0 mg/kg/injection, schedule: Q01DX001 (ip), vehicle: saline 101 % of control | dose: 10.0 mg/kg/injection, schedule: Q01DX001 (ip), vehicle: saline 101 % of control | dose: 20.0 mg/kg/injection, schedule: Q01DX001 (ip), vehicle: saline 95 % of control | dose: 40.0 mg/kg/injection, schedule: Q01DX001 (ip), vehicle: saline 103 % of control | dose: 80.0 mg/kg/injection, schedule: Q01DX001 (ip), vehicle: saline 101 % of control

Cc1ccc(S(=O)(=O)N(CCCc2c(C)nc(N)nc2Nc2ccccc2)c2ccccc2)cc1
inactive: dose: 25.0 mg/kg/injection, schedule: Q01DX001 (ip), vehicle: saline with Tween-80 108 % of control | dose: 50.0 mg/kg/injection, schedule: Q01DX001 (ip), vehicle: saline with Tween-80 92 % of control | [7] 93 % of control

O=C1OCC/C1=C/CCCC/C=C1\CCOC1=O
inactive: [5] 93 % of control | [8] 94 % of control | [6] 98 % of control | dose: 266.0 mg/kg/injection, schedule: Q04DX003 (ip), vehicle: Klucel (hydroxypropylcellulose) (HPC) 93 % of control | dose: 400.0 mg/kg/injection, schedule: Q04DX003 (ip), vehicle: Klucel (hydroxypropylcellulose) (HPC) 94 % of control

COC(=O)C1CC2c3[nH]c4ccccc4c3CCN2C1 (configuration not stated)
inactive: [8] 94 % of control | dose: 200.0 mg/kg/injection, schedule: Q04DX003 (ip), vehicle: Klucel (hydroxypropylcellulose) (HPC) 92 % of control

C=CC[P+](C)(c1ccccc1)c1ccccc1
inactive: dose: 3.13 mg/kg/injection, schedule: Q01DX009 (ip), vehicle: saline 106 % of control

CC(=O)OC1COC(n2cnc3c(N4CCCCC4)nc(Cl)nc32)C(OC(C)=O)C1OC(C)=O (configuration not stated)
inactive: [2] 102 % of control | [3] 96 % of control | [4] 102 % of control

O=C(Nc1ccc(F)c([N+](=O)[O-])c1)Oc1cccnc1
inactive: dose: 25.0 mg/kg/injection, schedule: Q01DX009 (ip), vehicle: saline with Tween-80 97 % of control and 99 % of control | dose: 50.0 mg/kg/injection, schedule: Q01DX009 (ip), vehicle: saline with Tween-80 95 % of control and 96 % of control | [7] 108 % of control | dose: 100.0 mg/kg/injection, schedule: Q04DX002 (ip), vehicle: saline with Tween-80 95 % of control and 100 % of control | [9] 97 % of control | dose: 200.0 mg/kg/injection, schedule: Q01DX001 (ip), vehicle: saline with Tween-80 109 % of control | dose: 200.0 mg/kg/injection, schedule: Q04DX002 (ip), vehicle: saline with Tween-80 104 % of control and 109 % of control | [10] 100 % of control | dose: 400.0 mg/kg/injection, schedule: Q04DX002 (ip), vehicle: saline with Tween-80 102 % of control and 103 % of control

COc1ccc(NC(=O)NC2CCCCC2)c(Cl)c1
inactive: dose: 100.0 mg/kg/injection, schedule: Q04DX002 (ip), vehicle: Klucel (hydroxypropylcellulose) (HPC) 97 % of control | dose: 200.0 mg/kg/injection, schedule: Q04DX002 (ip), vehicle: Klucel (hydroxypropylcellulose) (HPC) 102 % of control | dose: 400.0 mg/kg/injection, schedule: Q04DX002 (ip), vehicle: Klucel (hydroxypropylcellulose) (HPC) 94 % of control

COCC(=O)C(C(C)=O)C(c1ccc(N(C)C)cc1)C(C(C)=O)C(=O)COC (configuration not stated)
inactive: [9] 98 % of control | [10] 89 % of control | dose: 400.0 mg/kg/injection, schedule: Q04DX003 (ip), vehicle: saline with Tween-80 91 % of control

C=C1C(=O)O[C@@H]2/C=C(\C)CC/C=C(/C)CC[C@@H]12
inactive: [1] 101 % of control | [2] 86 % of control | [3] 93 % of control | [4] 86 % of control

COC(=O)C(CC(C)C)NC(=O)C(Cc1ccccc1)NC(=O)OCc1ccccc1 (stereo not drawn) (Cbz-Phe-Leu-OMe; configuration not given here)
inactive: [2] 98 % of control | [3] 93 % of control | [4] 91 % of control

CC12CCC(C1)C(C)(C)/C2=N\N=C(N)N (configuration not stated)
inactive: dose: 15.0 mg/kg/injection, schedule: Q01DX Z (ip), vehicle: saline 93 % of control | dose: 30.0 mg/kg/injection, schedule: Q01DX Z (ip), vehicle: saline 103 % of control | dose: 60.0 mg/kg/injection, schedule: Q01DX Z (ip), vehicle: saline 93 % of control | dose: 120.0 mg/kg/injection, schedule: Q01DX Z (ip), vehicle: saline 97 % of control | dose: 188.0 mg/kg/injection, schedule: Q01DX Z (oral), vehicle: saline 103 % of control | dose: 375.0 mg/kg/injection, schedule: Q01DX Z (oral), vehicle: saline 105 % of control | dose: 750.0 mg/kg/injection, schedule: Q01DX Z (oral), vehicle: saline 91 % of control

CC1(C)C(C)(C)C1(Cl)Cl
inactive: dose: 100.0 mg/kg/injection, schedule: Q01DX009 (ip), vehicle: saline 100 % of control | dose: 100.0 mg/kg/injection, schedule: Q04DX003 (sc), vehicle: olive oil, sesame oil, peanut oil 112 % of control | dose: 200.0 mg/kg/injection, schedule: Q01DX009 (ip), vehicle: saline 100 % of control | dose: 200.0 mg/kg/injection, schedule: Q04DX003 (sc), vehicle: olive oil, sesame oil, peanut oil 96 % of control | dose: 400.0 mg/kg/injection, schedule: Q01DX009 (ip), vehicle: saline 100 % of control | dose: 400.0 mg/kg/injection, schedule: Q04DX003 (sc), vehicle: olive oil, sesame oil, peanut oil 107 % of control

CCN(CC)CC(C)OC(=O)c1ccc(N)cc1 (configuration not stated)
inactive: dose: 100.0 mg/kg/injection, schedule: Q04DX003 (ip), vehicle: saline 103 % of control | dose: 200.0 mg/kg/injection, schedule: Q04DX003 (ip), vehicle: saline 101 % of control

Cc1c(Cl)c(C)c(Sc2c(C)c(Cl)c(C)c(Br)c2O)c(O)c1Br
inactive: dose: 100.0 mg/kg/injection, schedule: Q01DX001 (ip), vehicle: other 87 % of control | dose: 100.0 mg/kg/injection, schedule: Q04DX003 (ip), vehicle: other 100 % of control | dose: 200.0 mg/kg/injection, schedule: Q01DX001 (ip), vehicle: other 88 % of control | dose: 200.0 mg/kg/injection, schedule: Q04DX003 (ip), vehicle: other 107 % of control | dose: 400.0 mg/kg/injection, schedule: Q01DX001 (ip), vehicle: other 93 % of control | dose: 400.0 mg/kg/injection, schedule: Q04DX003 (ip), vehicle: other 113 % of control

CNC1C(O)C(OC)OC2COC(c3ccccc3)OC21 (configuration not stated)
inactive: [9] 93 % of control | [10] 93 % of control
